Experimental findings from patent US10590086B2, “Pharmaceutical compound” (IOmet Pharma Ltd., priority 2014, dated 2020) are described below.

Experiment [1] deals with T1, IDO (Homo sapiens, UniProt P14902). Briefly: SKOV3 kynurenine cell-based assay (IDO induced by IFN-γ). Also on record: IDO expression was induced in the SKOV3 cells by the addition of 500 ng/ml IFN-γ; endogenous in cells; host or cells: SKOV3 (human ovarian adenocarcinoma), induced with IFN-γ. The note with it: 48 hours, read-out: SKOV3 Kynurenine cell based assay pIC50 (converted). Summed up: (§1)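 First, A172 or SKOV3 cells were seeded in phenol red-free RPMI, 10% FCS, 2 mM L-glutamine, 500 μM L-tryptophan; SKOV3 received 500 ng/ml IFN-γ for IDO induction. Next came compound exposure, 48 hours, 37° C. Finally, cells were spun out, supernatant treated with Erhlich's reagent, absorbance read at 490 nm.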

Experiment [2] deals with T2, TDO (Homo sapiens, UniProt P48775). Briefly: hTDO biochemical coupled assay. The following applies: 330 μM L-tryptophan, read-out: hTDO biochemical assay pIC50 (converted).
Source text: (§2) Two different assays were employed: 1. a cell-based assay for detecting the effect of test compounds on kynurenine production in two different cancer cell types. This assay utilised cancer cells which expressed either TDO or IDO and as such was used as a means of testing compound activity at these two enzymes in a cell-based context. 2. a TDO and IDO biochemical coupled assay which utilised recombinantly produced and purified TDO and IDO enzymes in combination with the enzyme formamidase. This coupled enzyme system allowed conversion of N-formylkynurenine produced by TDO or IDO activity to kynurenine which was then quantified by fluorescence following addition of Erhlich's Reagent The protocols for these are set out below.
Experiment [3] addresses T1, IDO. The experiment can be described thus: hIDO biochemical coupled assay. The following applies: 45 μM L-tryptophan, read-out: hIDO biochemical assay pIC50 (converted).
Source text: as §2
The target in experiment [4] is T2, TDO. Briefly: A172 kynurenine cell-based assay. Also on record: This assay utilised cancer cells which expressed either TDO or IDO; endogenous in cells; host or cells: A172 (human glioblastoma). The following applies: A172 human glioblastoma cells, 48 hours, read-out: A172 Kynurenine cell based assay pIC50 (converted). Summed up:
as §1

Where [5] appears, read: SKOV3 human ovarian adenocarcinoma cells, 500 ng/ml IFN-γ, 500 μM L-tryptophan.

T1 sequence (P14902 whole entry): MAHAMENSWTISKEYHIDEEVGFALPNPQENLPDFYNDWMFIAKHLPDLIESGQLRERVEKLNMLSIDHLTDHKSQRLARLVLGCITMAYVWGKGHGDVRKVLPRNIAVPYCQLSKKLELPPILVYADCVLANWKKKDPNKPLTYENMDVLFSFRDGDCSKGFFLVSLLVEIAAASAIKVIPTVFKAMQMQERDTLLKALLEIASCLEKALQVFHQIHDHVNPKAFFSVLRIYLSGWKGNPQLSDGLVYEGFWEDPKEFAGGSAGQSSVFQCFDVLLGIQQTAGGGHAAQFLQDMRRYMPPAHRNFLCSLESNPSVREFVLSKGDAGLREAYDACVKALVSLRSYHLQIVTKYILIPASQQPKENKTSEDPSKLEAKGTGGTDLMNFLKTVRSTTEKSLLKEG
T2 sequence (P48775 whole entry): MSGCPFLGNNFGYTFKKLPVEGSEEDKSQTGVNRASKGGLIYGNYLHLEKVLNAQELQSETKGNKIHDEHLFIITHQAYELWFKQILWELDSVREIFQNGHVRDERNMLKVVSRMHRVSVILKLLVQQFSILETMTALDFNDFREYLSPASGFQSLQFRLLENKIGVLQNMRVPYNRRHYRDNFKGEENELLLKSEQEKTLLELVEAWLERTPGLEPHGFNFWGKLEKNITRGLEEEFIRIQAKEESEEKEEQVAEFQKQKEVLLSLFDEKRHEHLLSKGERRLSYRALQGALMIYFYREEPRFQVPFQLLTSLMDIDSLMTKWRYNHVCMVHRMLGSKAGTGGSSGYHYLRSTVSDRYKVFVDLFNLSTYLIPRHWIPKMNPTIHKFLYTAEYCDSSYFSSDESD

In the case of `OC1(c2cc(Cl)cc3[nH]ncc23)CCOCC1` [Compound 319], the IC50 at IDO [1] (setting [5]) was 32.4 to 100 µM; at TDO [2] (17 minutes, room temperature), less than 3.16 µM; at IDO [3] (17 minutes, room temperature) it was 3.24 to 31.6 µM; at TDO [4] (500 μM L-tryptophan), less than 3.16 µM.

Turning to `NC(=O)C1CCN(c2cc(Cl)cc3[nH]ncc23)CC1` [Compound 226], the IC50 was 3.24 to 31.6 µM at IDO [1] (setting [5]); less than 3.16 µM on TDO [2] (17 minutes, room temperature); less than 3.16 µM on IDO [3] (17 minutes, room temperature); less than 3.16 µM at TDO [4] (500 μM L-tryptophan).

For the compound `CC(=O)N(C)CC1CCCN(c2cc(Cl)cc3[nH]ncc23)C1` (stereo not shown) [Compound 286], the IC50 at IDO [1] (setting [5]) is 3.24 to 31.6 µM; at TDO [2] (17 minutes, room temperature), less than 3.16 µM; on IDO [3] (17 minutes, room temperature), more than 100 µM; on TDO [4] (500 μM L-tryptophan), 3.24 to 31.6 µM.

As to `O=C1NC2(CCN(c3cc(Cl)cc4[nH]ncc34)CC2)C(=O)N1Cc1ncco1` [Compound 407], the IC50 on IDO [1] (setting [5]) was less than 3.16 µM; at TDO [2] (17 minutes, room temperature), less than 3.16 µM; at IDO [3] (17 minutes, room temperature), less than 3.16 µM; on TDO [4] (500 μM L-tryptophan) it was less than 3.16 µM.

On to `CC(C)S(=O)(=O)N1CCN(c2cccc3[nH]ncc23)CC1` [Compound 22], for which the IC50 on IDO [1] (setting [5]) is 32.4 to 100 µM; at TDO [2] (17 minutes, room temperature), 3.24 to 31.6 µM; at IDO [3] (17 minutes, room temperature) it was more than 100 µM; on TDO [4] (500 μM L-tryptophan), 3.24 to 31.6 µM.

Turning to `O=C(O)C1CCN(c2cc(Cl)cc3[nH]ncc23)CC1` [Compound 301], the IC50 at IDO [1] (setting [5]) is more than 100 µM; on TDO [2] (17 minutes, room temperature), less than 3.16 µM; at IDO [3] (17 minutes, room temperature), 32.4 to 100 µM; on TDO [4] (500 μM L-tryptophan), 3.24 to 31.6 µM.

In the case of `CNC(=O)c1ccc(-c2cc(Cl)cc3[nH]ncc23)cc1` [Compound 257], the IC50 was 3.24 to 31.6 µM on IDO [1] (setting [5]); less than 3.16 µM on TDO [2] (17 minutes, room temperature); more than 100 µM at IDO [3] (17 minutes, room temperature); less than 3.16 µM on TDO [4] (500 μM L-tryptophan).

For `O=C1NC2(CCN(c3cc(Cl)cc4[nH]ncc34)CC2)C(=O)N1CC(F)(F)F` [Compound 405], the IC50 on IDO [1] (setting [5]) is less than 3.16 µM; on TDO [2] (17 minutes, room temperature), less than 3.16 µM; on IDO [3] (17 minutes, room temperature), less than 3.16 µM; on TDO [4] (500 μM L-tryptophan), less than 3.16 µM.

Consider `Clc1cc(C2CCCCC2)c2cn[nH]c2c1` [Compound 353], for which the IC50 at IDO [1] (setting [5]) is 32.4 to 100 µM; on TDO [2] (17 minutes, room temperature), less than 3.16 µM; on IDO [3] (17 minutes, room temperature) it was more than 100 µM; on TDO [4] (500 μM L-tryptophan), less than 3.16 µM.

For the compound `CC(=O)N(C)C1CCN(c2cc(Cl)cc3[nH]ncc23)C1` (stereo not shown) [Compound 278], the IC50 on IDO [1] (setting [5]) is 3.24 to 31.6 µM; on TDO [2] (17 minutes, room temperature), less than 3.16 µM; at IDO [3] (17 minutes, room temperature), 32.4 to 100 µM; at TDO [4] (500 μM L-tryptophan), less than 3.16 µM.

For `CC(=O)N1CCC(c2cc(C3CCCC3)cc3[nH]ncc23)CC1` [Compound 217], the IC50 on IDO [1] (setting [5]) is 32.4 to 100 µM; at TDO [2] (17 minutes, room temperature), more than 100 µM; at IDO [3] (17 minutes, room temperature) it was more than 100 µM; on TDO [4] (500 μM L-tryptophan), more than 100 µM.

Regarding `CC(=O)NCCN1CCN(c2cc(Cl)cc3[nH]ncc23)CC1(C)C` [Compound 421], the IC50 is more than 100 µM at IDO [1] (setting [5]); less than 3.16 µM at TDO [2] (17 minutes, room temperature); 3.24 to 31.6 µM on IDO [3] (17 minutes, room temperature); less than 3.16 µM on TDO [4] (500 μM L-tryptophan).

As for `Clc1cc(C2CCOCC2)c2cn[nH]c2c1` [Compound 426], the IC50 was more than 100 µM at IDO [1] (setting [5]); less than 3.16 µM on TDO [2] (17 minutes, room temperature); 3.24 to 31.6 µM on IDO [3] (17 minutes, room temperature); less than 3.16 µM at TDO [4] (500 μM L-tryptophan).

For the compound `CCN1C(=O)NC2(CCN(c3cc(Cl)cc4[nH]ncc34)CC2)C1=O` [Compound 315], the IC50 on IDO [1] (setting [5]) is less than 3.16 µM; at TDO [2] (17 minutes, room temperature), less than 3.16 µM; at IDO [3] (17 minutes, room temperature), less than 3.16 µM; at TDO [4] (500 μM L-tryptophan) it was less than 3.16 µM.

For the compound `Cc1nc2c(n1C)CN(c1cc(C(F)(F)F)cc3[nH]ncc13)CC2` [Compound 357], the IC50 at IDO [1] (setting [5]) was less than 3.16 µM; at TDO [2] (17 minutes, room temperature) it was 3.24 to 31.6 µM; on IDO [3] (17 minutes, room temperature) it was more than 100 µM; on TDO [4] (500 μM L-tryptophan), less than 3.16 µM.

Turning to `CC(=O)NCCN1CCN(c2cc(Cl)cc3[nH]ncc23)CC1` [Compound 379], the IC50 at IDO [1] (setting [5]) was more than 100 µM; on TDO [2] (17 minutes, room temperature) it was less than 3.16 µM; on IDO [3] (17 minutes, room temperature), more than 100 µM; on TDO [4] (500 μM L-tryptophan) it was less than 3.16 µM.

As to `COCCc1cc(Cl)cc2[nH]ncc12` [Compound 288], the IC50 at IDO [1] (setting [5]) was more than 100 µM; on TDO [2] (17 minutes, room temperature) it was less than 3.16 µM; at IDO [3] (17 minutes, room temperature), more than 100 µM; at TDO [4] (500 μM L-tryptophan), less than 3.16 µM.

On to `CN1CCN(c2cc(Cl)cc3[nH]ncc23)CC1=O` [Compound 332], for which the IC50 was more than 100 µM at IDO [1] (setting [5]); less than 3.16 µM on TDO [2] (17 minutes, room temperature); more than 100 µM on IDO [3] (17 minutes, room temperature); less than 3.16 µM at TDO [4] (500 μM L-tryptophan).

For `Clc1cc(N2CCC(c3cscn3)CC2)c2cn[nH]c2c1` [Compound 442], the IC50 was more than 100 µM at IDO [1] (setting [5]); less than 3.16 µM on TDO [2] (17 minutes, room temperature); 3.24 to 31.6 µM on IDO [3] (17 minutes, room temperature); less than 3.16 µM on TDO [4] (500 μM L-tryptophan).

As to `CS(=O)(=O)N1CCN(c2cc(Cl)cc3c(N)noc23)CC1` [Compound 302], the IC50 on IDO [1] (setting [5]) was 3.24 to 31.6 µM; at TDO [2] (17 minutes, room temperature), more than 100 µM; on IDO [3] (17 minutes, room temperature) it was more than 100 µM; on TDO [4] (500 μM L-tryptophan), 3.24 to 31.6 µM.

Take `CC(=O)N1CC2(CCN(c3cc(Cl)cc4[nH]ncc34)CC2)C1` [Compound 359]: the IC50 was 3.24 to 31.6 µM on IDO [1] (setting [5]); less than 3.16 µM at TDO [2] (17 minutes, room temperature); 3.24 to 31.6 µM on IDO [3] (17 minutes, room temperature); less than 3.16 µM at TDO [4] (500 μM L-tryptophan).

In the case of `CC(=O)N1CCC(CNC(=O)c2cc(Cl)cc3[nH]ncc23)CC1` [Compound 295], the IC50 on IDO [1] (setting [5]) is 32.4 to 100 µM; on TDO [2] (17 minutes, room temperature), more than 100 µM; at IDO [3] (17 minutes, room temperature), more than 100 µM; at TDO [4] (500 μM L-tryptophan) it was more than 100 µM.

For the compound `CS(=O)(=O)N1CCC(c2cc(C(F)F)cc3[nH]ncc23)CC1` [Compound 387], the IC50 was 3.24 to 31.6 µM at IDO [1] (setting [5]); less than 3.16 µM on TDO [2] (17 minutes, room temperature); 3.24 to 31.6 µM on IDO [3] (17 minutes, room temperature); less than 3.16 µM on TDO [4] (500 μM L-tryptophan).

Regarding `CC(=O)NC1CCN(c2cc(Cl)cc3[nH]ncc23)CC1(C)C` (stereo not shown) [Compound 335], the IC50 on IDO [1] (setting [5]) is 3.24 to 31.6 µM; at TDO [2] (17 minutes, room temperature), less than 3.16 µM; at IDO [3] (17 minutes, room temperature), 3.24 to 31.6 µM; on TDO [4] (500 μM L-tryptophan), less than 3.16 µM.

For the compound `CC(=O)N1C2CCC1CN(c1cc(Cl)cc3[nH]ncc13)C2` [Compound 231], the IC50 at IDO [1] (setting [5]) was 3.24 to 31.6 µM; at TDO [2] (17 minutes, room temperature), less than 3.16 µM; on IDO [3] (17 minutes, room temperature), 3.24 to 31.6 µM; on TDO [4] (500 μM L-tryptophan), less than 3.16 µM.

Consider `CS(=O)(=O)NCCn1cc(-c2cc(Cl)cc3[nH]ncc23)cn1` [Compound 373], for which the IC50 at IDO [1] (setting [5]) was 32.4 to 100 µM; on TDO [2] (17 minutes, room temperature), 3.24 to 31.6 µM; on IDO [3] (17 minutes, room temperature), more than 100 µM; on TDO [4] (500 μM L-tryptophan) it was less than 3.16 µM.

Regarding `CS(=O)(=O)c1ccc(-c2cc(Cl)cc3[nH]ncc23)cc1` [Compound 192, 6-chloro-4-(4-(methylsulfonyl)phenyl)-1H-indazole], the IC50 is 5.62 µM on IDO [1] (SKOV3 cells, IDO induced by 500 ng/ml IFN-γ); 3.24 to 31.6 µM at IDO [1] (setting [5]); less than 3.16 µM at TDO [2] (17 minutes, room temperature); 0.129 µM on TDO [2]; 3.24 to 31.6 µM on IDO [3] (17 minutes, room temperature); 15.5 µM on IDO [3]. Besides, the IC50 was less than 3.16 µM at TDO [4] (500 μM L-tryptophan) and 0.0245 µM at TDO [4].

Consider `CS(=O)(=O)c1ccc(-c2cc(Cl)cc3[nH]ncc23)c(F)c1` [Compound 297], for which the IC50 is less than 3.16 µM at IDO [1] (setting [5]); less than 3.16 µM on TDO [2] (17 minutes, room temperature); 3.24 to 31.6 µM at IDO [3] (17 minutes, room temperature); less than 3.16 µM on TDO [4] (500 μM L-tryptophan).

For `CC(=O)N1CCN(c2cc(Cl)cc3c(N)n[nH]c23)CC1(C)C` [Compound 307], the IC50 is 3.24 to 31.6 µM at IDO [1] (setting [5]); less than 3.16 µM on TDO [2] (17 minutes, room temperature); less than 3.16 µM at IDO [3] (17 minutes, room temperature); more than 100 µM at TDO [4] (500 μM L-tryptophan).

As for `CC(C)(O)c1cc(Cl)cc2[nH]ncc12` [Compound 259], the IC50 at IDO [1] (setting [5]) was 32.4 to 100 µM; on TDO [2] (17 minutes, room temperature), less than 3.16 µM; on IDO [3] (17 minutes, room temperature), more than 100 µM; at TDO [4] (500 μM L-tryptophan), less than 3.16 µM.
